What was measured:
[1] = molecular target: T1, Hb (Homo sapiens, UniProt P68871+P69905); assay: Whole blood assay: oxygen equilibrium curves (Hemox Analyzer), change in p50; assay type: cell-based; details: whole blood incubated 1 h at 37° C., equimolar ratio of hemoglobin to compound
T1 construct: from tissue; host or cells: whole blood
Method: Whole blood assay: Oxygen equilibrium curves (OECs) were collected using a TCS Hemox Analyzer (TCS Scientific Company, New Hope, Pa., USA) to measure changes in the binding affinity of O2 to Hb. Whole blood was incubated for 1 h at 37° C. with the indicated compounds in an equimolar ratio of hemoglobin to compound and diluted into TES (2-[[1,3-dihydroxy-2-(hydroxymethyl)propan-2-yl]amino]ethanesulfonic acid)/saline buffer prior to measurements. For example, for whole blood at 20% hematocrit [Hct], which corresponds to 1 mM Hb, a compound concentration of 1 mM was used (for example, for compounds 1-5), and the incubated sample diluted 50- to 100-fold. The concentration for compounds 6-44 (Diastereomers 1 and 2) varied but remained in equimolar ratio to hemoglobin. The diluted samples were then oxygenated with compressed air within the Hemox Analyzer and the OECs were collected during deoxygenation as previously described (Guarnone et al., Haematologica, 1995, 80, 426-430). p 50 (partial pressure of O2 at which Hb is 50% saturated with O2) values were obtained using a non-linear regression analysis. Percentage change in p50 [Δp50(%)] was calculated as follows: Δp50(%)=[(p50 of control)−p50 with compound)/p50 control]×100.

[2] = Rat PK, oral gavage; assay type: in vivo, Sprague-Dawley rats; details: oral gavage 10 mg/kg; for blood plasma ratio / half-life: male, Sprague-Dawley, rat, po, 10 mg/kg; for blood plasma ratio: whole blood and plasma; for half-life: whole blood
Method: Rat PK: A group of fasted male Sprague-Dawley rats were dosed via oral gavage at 10 mg/kg with test articles formulated in 0.5% methylcellulose suspension. Blood samples were collected through jugular vein at pre-selected time points. Blood samples were prepared by protein precipitation with ACN, vortexed and then centrifuged before supernatants were transferred for bioanalysis. Test article concentrations were measured by HPLC-MS-MS. Pharmacokinetic parameters were calculated using non-compartment analysis. The blood/plasma ratio was calculated by dividing the AUClast (i.e., the area under the curve calculated from t=0 to the last detectable time-point) in blood by the AUClast in plasma. The T1/2 was calculated via a linear regression of the terminal phase of the blood-time concentration profile.

[3] = AUClast in blood divided by AUClast in plasma, rats
[4] = fasted male Sprague-Dawley rats, 0.5% methylcellulose suspension, blood

T1 sequence (P69905 2-142 limits assumed): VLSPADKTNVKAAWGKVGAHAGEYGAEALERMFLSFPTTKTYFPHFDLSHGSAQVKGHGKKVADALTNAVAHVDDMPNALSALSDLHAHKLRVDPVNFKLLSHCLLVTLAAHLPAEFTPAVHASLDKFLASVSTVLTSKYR
T1 sequence (P68871 2-147 limits assumed): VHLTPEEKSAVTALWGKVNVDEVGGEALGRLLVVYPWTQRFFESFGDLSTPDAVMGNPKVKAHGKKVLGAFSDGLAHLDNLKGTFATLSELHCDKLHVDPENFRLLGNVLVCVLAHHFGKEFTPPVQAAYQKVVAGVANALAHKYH

| Compound | Delta-p50 (%) [1] | blood plasma ratio [2, 3] | half-life [2, 4] | Blood/Plasma ratio [2, 3] | T1/2 [2, 4] |
| --- | --- | --- | --- | --- | --- |
| O=Cc1c(O)cccc1OC[C@@H]1COCCN1C(=O)c1ccccc1CO [Compound 23, 2-hydroxy-6-{[(3S)-4-[2-(hydroxymethyl)benzoyl]morpholin-3-yl]methoxy}benzaldehyde] | 70.92% | 59 | 62 h | – | – |
| O=Cc1c(O)cccc1OC[C@@H]1CCCCN1C(=O)c1cccnc1CO [Compound 11, (S)-2-hydroxy-6-((1-(2-(hydroxymethyl)nicotinoyl)piperidin-2-yl)methoxy)benzaldehyde] | 79.3% | 126 | 55 h | – | – |
| O=Cc1c(O)cccc1OCC1CSCCN1C(=O)c1cccnc1CCO (single isomer, unassigned) [10 (Enantiomer 2)] | 87.3% | 212 | 112 h | – | – |
| O=Cc1c(O)cccc1OC[C@@H]1CSCCN1C(=O)c1ccccc1C(O)CO (single isomer, unassigned) [35 (Diastereomer 1)] | 81.35% | 493 | 102 h | – | – |
| O=Cc1c(O)cccc1OCC1CSCCN1C(=O)c1ccccc1CO (single isomer, unassigned) [40 (Enantiomer 2)] | 83.36% | 424 | 117 h | – | – |
| CC(C)(O)Cc1ncccc1C(=O)N1CCOC[C@H]1COc1cccc(O)c1C=O [Compound 39, 2-hydroxy-6-{[(3S)-4-[2-(2-hydroxy-2-methylpropyl)pyridine-3-carbonyl]morpholin-3-yl]methoxy}benzaldehyde] | 77.98% | 52 | 52 h | – | – |
| O=Cc1c(O)cccc1OC[C@H]1CCCCN1C(=O)c1cccnc1CCO [Compound 38, 2-hydroxy-6-{[(2R)-1-[2-(2-hydroxyethyl)pyridine-3-carbonyl]piperidin-2-yl]methoxy}benzaldehyde] | 60.85% | – | – | – | – |
| O=Cc1c(O)cccc1OCC1CSCCN1C(=O)c1ccccc1CO (stereo not shown) [Compound 40, 2-hydroxy-6-({4-[2-(hydroxymethyl)benzoyl]thiomorpholin-3-yl}methoxy)benzaldehyde] | 72.82% | – | – | – | – |
| O=Cc1c(O)cccc1OC[C@@H]1CSCCN1C(=O)c1ccccc1C(O)CO (single isomer, unassigned) [35 (Diastereomer 2)] | 83.1% | – | – | 636 | 89 h |
| O=Cc1c(O)cccc1OC[C@@H]1CCCCN1C(=O)c1ccccc1CCO [Compound 6, (S)-2-hydroxy-6-((1-(2-(2-hydroxyethyl)benzoyl)-piperidin-2-yl)methoxy)-benzaldehyde] | 74.5% | – | – | – | – |
| O=Cc1c(O)cccc1OC[C@H]1COCCN1C(=O)c1cccnc1CCO [Compound 37, 2-hydroxy-6-{[(3R)-4-[2-(2-hydroxyethyl)pyridine-3-carbonyl]morpholin-3-yl]methoxy}benzaldehyde] | 60.58% | – | – | – | – |
| O=Cc1c(O)cccc1OC[C@@H]1CCCCN1C(=O)c1cccnc1C(O)CO (stereo partly drawn) [Compound 36, 2-{[(2S)-1-[2-(1,2-dihydroxyethyl)pyridine-3-carbonyl]piperidin-2-yl]methoxy}-6-hydroxybenzaldehyde] | 77.04% | 115 | 56 h | – | – |
| COCCc1ncccc1C(=O)N1CCOC[C@H]1COc1cccc(O)c1C=O [Compound 20, 2-hydroxy-6-{[(3S)-4-[2-(2-methoxyethyl)pyridine-3-carbonyl]morpholin-3-yl]methoxy}benzaldehyde] | 78.32% | 45 | 65 h | – | – |

— patent US11548880B2, “Modulators of hemoglobin” (Global Blood Therapeutics, Inc., priority 2018, dated 2023)
